# Test results reported in the RepoRT retention time repository.
# Experiment: RP, Waters ACQUITY UPLC BEH C8, 100 × 2.1 mm, 1.7 µm, 55 °C, 0.6 mL/min, estimated dead time 0.37 min; A: 50% water + 25% acetonitrile + 25% isopropanol + 0.05% acetic acid + 20 µM phosphoric acid + 5 mM ammonium acetate; B: 50% acetonitrile + 50% isopropanol + 0.05% acetic acid + 5 mM ammonium acetate; gradient (min/%B) 0/1 0.1/1 2/30 11.5/90 12/99.9 12.5/99.9 12.55/65 12.65/30 12.75/1 12.95/1 13.25/1
# Details: stereoisomer not certain
row,Structure (SMILES),LC retention time
1,CCCCCCCCCCCCCCCC(=O)OCC(COP(=O)([O-])OCC[N+](C)(C)C)OC(=O)CCCCCCCCCCCCCCC (stereo not drawn) [PC(16:0/16:0)],6.38 min
2,CCCCCCCCCCCCCCCCC(=O)OC(COC(=O)CCCCCCCCCCCCCCC)COP(=O)([O-])OCC[N+](C)(C)C (stereo not drawn) [PC(16:0/17:0)],6.63 min
3,CCCCCCCCCCCCCCCCCC(=O)OCC(COP(=O)([O-])OCC[N+](C)(C)C)OC(=O)CCCCCCCCCCCCCCCCC (stereo not drawn) [PC(18:0/18:0)],7.67 min
4,CCCCCCCCCCCCCCCCOCC(COP(=O)([O-])OCC[N+](C)(C)C)OC(=O)CCCCCCCCCCCCC (stereo not drawn) [PC(O-16:0/14:0)],6.13 min
5,CCCCCCCCCCCCCCCCOCC(COP(=O)([O-])OCC[N+](C)(C)C)OC(=O)CCCCCCCCCCCCCC (stereo not drawn) [PC(O-16:0/15:0)],6.47 min
6,CCCCCCCCCCCCCCCCOCC(COP(=O)([O-])OCC[N+](C)(C)C)OC(=O)CCCCCCCCCCCCCCC (stereo not drawn) [PC(O-16:0/16:0)],6.81 min
7,CCCCCCCCCCCCCCCCCCOCC(COP(=O)([O-])OCC[N+](C)(C)C)OC(=O)CCCCCCCCCCCCCCC (stereo not drawn) [PC(O-18:0/16:0)],7.47 min
8,CCCCCCCCCCCCCCCC(=O)OC(CC(=O)[O-])C[N+](C)(C)C (stereo not drawn) [Palmitoylcarnitine CAR(16:0)],1.75 min
9,CC(C=CC1=C(C)CCCC1(C)C)=CC=CC(C)=CCO [Retinol],2.3 min
10,CCCCCCCCCCCC=CC(O)C(COP(=O)([O-])OCC[N+](C)(C)C)NC(=O)CCCCCCCCCCCCCCCCCCC (stereo not drawn) [SM(d16:1/20:0)],6.5 min
11,CCCCCCCCCCCC=CC(O)C(COP(=O)([O-])OCC[N+](C)(C)C)NC(=O)CCCCCCCCCCCCCCCCCCCCC (stereo not drawn) [SM(d16:1/22:0)],7.23 min
12,CCCCCCCCCCCC=CC(O)C(COP(=O)([O-])OCC[N+](C)(C)C)NC(=O)CCCCCCCCCCCCCCCCCCCCCC (stereo not drawn) [SM(d16:1/23:0)],7.57 min
13,CCCCCCCCCCCC=CC(O)C(COP(=O)([O-])OCC[N+](C)(C)C)NC(=O)CCCCCCCCCCCCCCCCCCCCCCC (stereo not drawn) [SM(d16:1/24:0)],7.9 min
14,CCCCCCCCCCCCCCCC(=O)NC(COP(=O)([O-])OCC[N+](C)(C)C)C(O)CCCCCCCCCCCCCCC (stereo not drawn) [SM(d18:0/16:0)],5.94 min
15,CCCCCCCCCCCCCC=CC(O)C(COP(=O)([O-])OCC[N+](C)(C)C)NC(=O)CCCCCCCCCCCCCCC (stereo not drawn) [SM(d18:1/16:0)],5.68 min
16,CCCCCCCCCCCCCC=CC(O)C(COP(=O)([O-])OCC[N+](C)(C)C)NC(=O)CCCCCCCCCCCCCCCCC (stereo not drawn) [SM(d18:1/18:0)],6.41 min
17,CCCCCCCCCCCCCC=CC(O)C(COP(=O)([O-])OCC[N+](C)(C)C)NC(=O)CCCCCCCCCCCCCCCCCCC (stereo not drawn) [SM(d18:1/20:0)],7.12 min
18,CCCCCCCCCCCCCC=CC(O)C(COP(=O)([O-])OCC[N+](C)(C)C)NC(=O)CCCCCCCCCCCCCCCCCCCCC (stereo not drawn) [SM(d18:1/22:0)],7.79 min
19,CCCCCCCCCCCCCC=CC(O)C(COP(=O)([O-])OCC[N+](C)(C)C)NC(=O)CCCCCCCCCCCCCCCCCCCCCC (stereo not drawn) [SM(d18:1/23:0)],8.1 min
20,CCCCCCCCCCCCCC=CC(O)C(COP(=O)([O-])OCC[N+](C)(C)C)NC(=O)CCCCCCCCCCCCCCCCCCCCCCC (stereo not drawn) [SM(d18:1/24:0)],8.4 min
21,CCCCCCCCCCCCCCC=CC(O)C(COP(=O)([O-])OCC[N+](C)(C)C)NC(=O)CCCCCCCCCCCCCCC (stereo not drawn) [SM(d19:1/16:0)],5.95 min
22,CCCCCCCCCCCCCCC=CC(O)C(COP(=O)([O-])OCC[N+](C)(C)C)NC(=O)CCCCCCCCCCCCCCCCC (stereo not drawn) [SM(d19:1/18:0)],6.66 min
23,CCCCCCCCCCCCCC=CC(O)C(N)COP(=O)(O)O (stereo not drawn) [Sphingosine-1-phosphate],1.52 min
24,CCCCCCCCCCCCCCCCCC(=O)OC(CC(=O)[O-])C[N+](C)(C)C (stereo not drawn) [Stearoylcarnitine CAR(18:0)],2.3 min
25,CCCCCCCCCCCCCCCCCCCCCCCC(=O)OC(CC(=O)[O-])C[N+](C)(C)C (stereo not drawn) [Tetracosanoylcarnitine CAR(24:0)],4.34 min
26,CCCCCCCCCCCCCC(=O)OC(CC(=O)[O-])C[N+](C)(C)C (stereo not drawn) [Tetradecanoylcarnitine CAR(14:0)],1.26 min
27,CC(C=CC=C(C)C=CC1=C(C)CC(O)CC1(C)C)=CC=CC=C(C)C=CC=C(C)C=CC1=C(C)CC(O)CC1(C)C (stereo not drawn) [Zeaxanthin],3.6 min
28,CC(C)=CCCC(C)=CCCC(C)=CC=CC(C)=CC=CC=C(C)C=CC=C(C)CCC=C(C)CCC=C(C)C [Zeta-carotene],8.28 min
